Test results published in US10913781B2, “Pepducin design and use” (Tufts Medical Center, Inc., priority 2011, dated 2021).
Peptide text beside a SMILES is read from it. * marks the point of attachment. Palmitoyl = CCCCCCCCCCCCCCCC(=O)*

Experiments:
[1] = system: VEGF-A production; assay: Thrombin-dependent VEGF-A production in A549 cells (ELISA); format: cell-based, human; conditions: A549, 18 hours thrombin treatment
Procedure: FIG. 13 illustrates that monotherapy with PAR1-i3 pepducins inhibits tumor progression of A549 xenografts. (A) and (B): A549 mice treated with vehicle, P1pal-7, P1pal-i1-11, P1pal-10S, X1/2-i1, X1/2-i3, or Avastin. Each time point represents the mean±SE. (C): Final tumor volume at the completion of the experiment was calculated as a percentage of untreated vehicle control. (D): Serum-starved A549 adenocarcinoma cells were pretreated with P1pal-7, P1pal-10S, P1pal-i1-11, vehicle, or PD98059 and stimulated with thrombin. VEGF production was assessed by enzyme-linked immunosorbent assay. Data are expressed as mean±SD (*P<0.05, **P<0.01).
Because the i3-based P1pal-7 pepducin had similar efficacy as Avastin in suppressing lung tumor growth of A549 xenografts, VEGF-A production was measured in the A549 tumor cells after 18 hours thrombin treatment. […] Unlike in ovarian cancer, no increase was found in PAR1-mediated IL-8 production in A549 cells, consistent with the observed lack of efficacy of CXCR1/2 pepducins in the A549 xenograft models. These xenograft data provide support for the role of a novel PAR1-ERK1/2-VEGF paracrine pathway that is an effective therapeutic target in the A549 adenocarcinoma lung cancer model.

[2] = biological target: T1, PAR1 (Homo sapiens, UniProt P25116); assay: Migration of primary patient lung tumor cells; format: cell-based; parameters: endogenous in cells; host or cells: A549, HOP62, H1299, H522, H226, HOP92 lung carcinoma lines
T1 sequence (P25116 22-425): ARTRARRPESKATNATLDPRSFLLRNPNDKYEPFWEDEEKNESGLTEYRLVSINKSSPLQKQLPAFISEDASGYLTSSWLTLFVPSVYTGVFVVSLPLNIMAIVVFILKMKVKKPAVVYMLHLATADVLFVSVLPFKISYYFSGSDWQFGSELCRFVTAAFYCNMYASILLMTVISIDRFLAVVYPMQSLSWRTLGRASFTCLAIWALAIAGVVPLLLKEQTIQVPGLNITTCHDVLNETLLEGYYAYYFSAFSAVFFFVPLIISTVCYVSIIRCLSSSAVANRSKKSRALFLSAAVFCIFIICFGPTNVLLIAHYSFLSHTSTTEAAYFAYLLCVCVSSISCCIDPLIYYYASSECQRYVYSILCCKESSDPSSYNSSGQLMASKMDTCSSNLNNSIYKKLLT
Procedure: FIG. 12 illustrates that PAR1 is a promigratory factor in lung cancer cells. (A-F): Inhibition of lung cancer migration in adenocarcinomas A549, HOP62, H1299 and H522, H226 squamous, and HOP92 large cell using PAR1 pepducins. Pepducins at […] (P1pal-7, P1pal-10S, P1pal-i1-11, or negative control P1pal-19EE) were added to the lower well. (G): Cell from primary lung tumors or nonmalignant control were pretreated with PAR1 pepducins and migration was determined (*P<0.05, **P<0.01).
Further experiments were carried out to determine whether migration of the primary carcinoma cell lines isolated from lung tumors could be inhibited by PAR1 pepducins (FIG. 12G). […] Likewise, the RWJ-56110 small-molecule antagonist of PAR1 (Andrade-Gordon, et al., Proc. Natl Acad Sci USA, 96 (1999), pp. 12257-12262) suppressed up to 55% of the migration of primary lung tumor cells toward NIH-3T3 conditioned media. The PAR1 antagonist pepducin P1pal-7 and P1pal-i1-11 had no effect on the low-expressing PAR1 cell line derived from benign lung tissue, which migrated poorly (FIG. 12G).

[3] = biological target: T1, PAR1; assay: [3H]-InsP formation in COS7 cells transfected with PAR1; format: cell-based; parameters: expressed in transfected cells; host or cells: COS7; conditions: 1 μM TFLLRN, 30 min
Procedure: (§1) (A) PAR2 antagonist pepducins P2pal-18S and P2pal-14GQ inhibit calcium flux induced by PAR2 (SLIGRL) (SEQ ID NO:4) but not PAR1 (TFLLRN) (SEQ ID NO:2) agonists. SW620 cells were stably transfected with PAR1 and pretreated for 1 min with various concentrations of P2pal-18S or P2pal-14GQ and then stimulated with 30 μM PAR agonist. […] Cells were stimulated with 1 μM TFLLRN (SEQ ID NO:2), 1 μM SLIGRL (SEQ ID NO:4) or 100 μM AYPGKF (SEQ ID NO:5) and [^3H]-InsP formation measured over 30 min. (C) SW620 cells were treated with the indicated concentrations of P2pal-18S or P2pal-14GQ in the upper well of an 8-μm pore Boyden chamber and allowed to migrate for 18 h towards 10 μM of the PAR2 specific agonist SLIGRL in the lower chamber. The migration to RPMI/0.1% FBS represents random migration. (D) Migration of HEK cells transiently transfected with PAR2 (wild-type, WT), or PAR2-R36A/PAR2-RQ toward chemotactic gradients of 30 nM trypsin in the absence or presence of the indicated concentration of P2pal-18S for 18 h in a transwell apparatus ([…]). Data (n=2-4) are mean±SEM. *, P<0.05 and **, P<0.005.

[4] = biological target: T2, PAR2 (Homo sapiens, UniProt P55085); assay: PAR2 binding to avidin beads coupled with PAR2 i3 loop 18S peptide
T2 sequence (P55085 26-397): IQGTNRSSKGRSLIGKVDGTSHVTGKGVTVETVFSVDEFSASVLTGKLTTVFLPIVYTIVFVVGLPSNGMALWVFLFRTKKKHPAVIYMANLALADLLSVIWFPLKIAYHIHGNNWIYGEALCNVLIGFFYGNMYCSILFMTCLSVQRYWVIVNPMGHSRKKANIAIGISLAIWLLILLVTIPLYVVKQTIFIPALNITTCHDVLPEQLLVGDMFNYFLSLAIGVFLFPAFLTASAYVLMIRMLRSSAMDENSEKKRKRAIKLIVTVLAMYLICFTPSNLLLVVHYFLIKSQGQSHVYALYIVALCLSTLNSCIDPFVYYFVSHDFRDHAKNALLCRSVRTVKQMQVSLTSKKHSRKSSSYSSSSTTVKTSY

[5] = biological target: T1, PAR1; assay: Ligand-dependent endocytosis of PAR1; format: cell-based
[6] = biological target: PAR2 (Mus musculus, UniProt P55086); assay: λ-carrageenan/kaolin-induced mouse paw edema and inflammation (PAR2 pepducin); format: in vivo; parameters: from tissue; host or cells: living C57BL/6 mice, hindpaw; conditions: 10 mg/kg s.c.
Sequence of PAR2 (Mus musculus, UniProt P55086) (P55086 26-399): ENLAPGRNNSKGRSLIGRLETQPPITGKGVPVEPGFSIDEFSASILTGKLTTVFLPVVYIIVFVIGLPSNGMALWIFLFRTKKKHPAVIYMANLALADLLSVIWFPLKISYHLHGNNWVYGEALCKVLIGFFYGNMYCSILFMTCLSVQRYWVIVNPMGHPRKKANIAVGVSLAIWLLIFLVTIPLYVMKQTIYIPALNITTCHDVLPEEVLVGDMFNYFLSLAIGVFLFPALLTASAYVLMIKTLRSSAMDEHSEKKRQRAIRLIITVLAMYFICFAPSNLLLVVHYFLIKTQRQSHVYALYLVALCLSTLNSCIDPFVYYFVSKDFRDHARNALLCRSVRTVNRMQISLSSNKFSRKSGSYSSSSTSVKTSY

[7] = biological target: T1, PAR1; assay: Calcium flux in SW620 cells stably transfected with PAR1, TFLLRN stimulus; format: cell-based; conditions: 30 μM TFLLRN
Procedure: as §1

[8] = biological target: T2, PAR2; assay: Trypsin cleavage of PAR2; format: cell-based
Excerpt: Additionally, we tested whether P2pal-18S inhibited proteolytic cleavage of PAR2 or endocytosis (DeFea K A, et al. (2000) J Cell Biol 148: 1267-81; Roosterman D, et al. (2003) Am J Physiol Cell Physiol 284: C1319-29; Stalheim L, et al. (2005) Mol Pharmacol 67: 78-87). […] Therefore, the P2pal-18S i3 loop pepducin can inhibit PAR2-dependent calcium signaling, PLC-b inositol phosphate formation, and cell migration, but not proteolytic cleavage or endocytosis.

| Effect on migration of low-expressing PAR1 cell line derived from benign lung tissue [2] | Inhibition of InsP signaling from PAR1 [3] | Binding of PAR2 to peptide-coupled avidin beads versus beads alone [4] | Inhibition of ligand-dependent endocytosis of PAR1 [5] | Effect on increase in myeloperoxidase activity in hindpaw tissue ([6]; 7 h after λ-carrageenan/kaolin, WT mice) | Protection against leukocytic infiltrates in the dermis of the footpads ([6]; 7 h post λ-carrageenan/kaolin) [%] | Effect on swelling in PAR2-deficient mice ([6]; PAR2-deficient mice) | Decrease in λ-carrageenan/kaolin-induced edema ([6]; WT C57BL/6 mice) [%] | Effect on paw edema in mast cell-deficient mice ([6]; mast cell-deficient mice, λ-carrageenan/kaolin) | Inhibition of PAR1 calcium flux [7] | Effect on trypsin cleavage of PAR2 [8] | SMILES | Effect on thrombin-dependent VEGF-A production [1] |
| --- | --- | --- | --- | --- | --- | --- | --- | --- | --- | --- | --- | --- |
| no effect | – | – | – | – | – | – | – | – | – | – | CCCCCCCCCCCCCCCC(=O)N[C@H](C(=O)N[C@@H](CC(C)C)C(=O)N[C@@H](CCCCN)C(=O)N[C@@H](CCSC)C(=O)N[C@@H](CCCCN)C(=O)N[C@H](C(=O)N[C@@H](CCCCN)C(=O)N[C@@H](CCCCN)C(=O)N1CCC[C@H]1C(=O)N[C@@H](C)C(=O)N[C@H](C(N)=O)C(C)C)C(C)C)[C@@H](C)CC [P1pal-i1-11] (Palmitoyl-ILKMKVKKPAV-NH2) | did not inhibit |
| – | do not inhibit | enhanced binding | did not inhibit | blocked | 60 | did not further reduce swelling | 50 | could not be further reduced | did not inhibit | no effect | CCCCCCCCCCCCCCCC(=O)N[C@@H](CCCNC(=N)N)C(=O)N[C@@H](CO)C(=O)N[C@@H](CO)C(=O)N[C@@H](C)C(=O)N[C@@H](CCSC)C(=O)N[C@@H](CC(=O)O)C(=O)N[C@@H](CCC(=O)O)C(=O)N[C@@H](CC(N)=O)C(=O)N[C@@H](CO)C(=O)N[C@@H](CCC(=O)O)C(=O)N[C@@H](CCCCN)C(=O)N[C@@H](CCCCN)C(=O)N[C@@H](CCCNC(=N)N)C(=O)N[C@@H](CCCCN)C(=O)N[C@@H](CO)C(=O)N[C@@H](C)C(=O)N[C@H](C(=O)N[C@@H](CCCCN)C(N)=O)[C@@H](C)CC [P2pal-18S] | – |
